Test results reported in patent publication US20220119866A1 (priority 2019, published 2022).
Where two headings read alike, the source gives them in different places.

How the values were obtained:
[1] = tested on: Clostridium difficile hypervirulent ribotype 027 (RT027) strains; test: drug sensitivity test, resistance rate of 269 RT027 strains; type: cell-based; settings: for Resistance rate to Category 1 (56 strains) / Resistance rate to Category 2 (23 strains) / Resistance rate to Category 3 (190 strains): 269 RT027 strains; for Resistance rate to Category 2 (23 strains): Category 2 (sensitive branch); for Average resistance rate: all 269 RT027 strains
[2] = tested on: Clostridium difficile clade2 strains; type: cell-based; settings: for Resistance rate to Category 1 (70 strains) / Resistance rate to Category 2 (96 strains) / Resistance rate to Category 3 (217 strains): 383 clade2 strains; for Average resistance rate: all 383 clade2 strains

| SMILES | Resistance rate to Category 1 (56 strains) [1] | Resistance rate to Category 2 (23 strains) [1] | Resistance rate to Category 2 (23 strains) ([1]; listed as metronidazole) | Resistance rate to Category 3 (190 strains) [1] | Average resistance rate [1] | Resistance rate to Category 1 (70 strains) [2] | Resistance rate to Category 2 (96 strains) [2] | Resistance rate to Category 2 (96 strains) ([2]; listed as metronidazole) | Resistance rate to Category 3 (217 strains) [2] | Average resistance rate [2] | Resistance rate to Category 2 (23 strains) ([1]; listed as vancomycin) | Resistance rate to Category 3 (190 strains) ([1]; listed as vancomycin) | Resistance rate to Category 2 (96 strains) ([2]; listed as vancomycin) | Resistance rate to Category 3 (217 strains) ([2]; listed as vancomycin) |
| --- | --- | --- | --- | --- | --- | --- | --- | --- | --- | --- | --- | --- | --- | --- |
| Cc1ncc([N+](=O)[O-])n1CCO [Metronidazole, metronidazole] | 51.79% | 0.0% | 0.0% | 47.37% | 44.24% | 52.86% | 3.13% | 3.03% | 48.39% | 37.86% |  |  |  |  |
| CN[C@H](CC(C)C)C(=O)N[C@H]1C(=O)N[C@@H](CC(N)=O)C(=O)N[C@H]2C(=O)N[C@H]3C(=O)N[C@H](C(=O)N[C@H](C(=O)O)c4cc(O)cc(O)c4-c4cc3ccc4O)[C@H](O)c3ccc(c(Cl)c3)Oc3cc2cc(c3O[C@@H]2O[C@H](CO)[C@@H](O)[C@H](O)[C@H]2O[C@H]2C[C@](C)(N)[C@H](O)[C@H](C)O2)Oc2ccc(cc2Cl)[C@H]1O [Vancomycin, vancomycin] | 94.64% | 21.74% |  | 21.05% | 36.43% | 92.86% | 30.21% |  | 22.58% | 37.34% | 21.74% | 21.05% | 30.21% | 22.58% |
